Test results taken from PubChem BioAssay AID1996.
≈ marks a conversion by molar mass, not a printed value.

Conditions: buffer; pH 7.4; 200.0 µM

| SMILES | solubility kinetic [µg/mL] |
| --- | --- |
| Cc1ccc(NC(=O)c2cccnc2C(=O)O)nc1 | > 38.6 |
| CCN(Cc1ccccc1)C(=O)CN1C(=O)c2ccccc2C1=O | > 48.4 |
| COCCNC(=S)Nc1ccccn1 | > 31.7 |
| CC(C)(C)c1ccc(-c2cnco2)cc1 | 0.9 (≈ 4.47 µM) |
| O=C(Nc1ccccc1N1CCOCC1)c1ccco1 | 35 (≈ 129 µM) |
| CC(C)[C@H](NC(=O)N1CCC(Cc2ccccc2)CC1)C(=O)O | > 47.8 |
| Cc1onc(-c2ccccc2)c1C(=O)NCCc1ccncc1 | > 46.1 |
| CCc1nc(SCC(=O)O)c(C#N)c2c1CCCC2 | > 41.5 |
| CCNc1nc(-c2cc(C)n(Cc3ccco3)c2C)cs1 | 5.2 (≈ 17.3 µM) |
| CC(=O)c1ccc(NC(=O)CN2C(=O)NC3(CCc4ccccc43)C2=O)cc1 (stereo not given) | > 56.6 |
| COc1ccc(NC(=S)N(CCN(C)C)Cc2cccs2)cc1 | > 52.4 |
| O=C(c1ccc(F)cc1)C(Cc1ccccc1)N1CCCCC1 (stereo not given) | 13.1 (≈ 42.1 µM) |
| CCOC(=O)c1ccc(CC2SC(N)=NC2=O)cc1 (stereo not given) | 36.6 (≈ 131 µM) |
| CCC(Oc1ccccc1OC)C(=O)Nc1ccc2c(c1)OCO2 (stereo not given) | 26.3 (≈ 79.9 µM) |
| O=C(NC(=S)Nc1ccccc1[N+](=O)[O-])c1ccccc1 | 4.1 (≈ 13.6 µM) |
| NC1C2CN3CCN(C2)CC1(c1ccccc1)C3 (stereo not given) | > 36.5 |
| Cc1csc(=Nc2ccccc2)n1CCCN1CCCC1=O | > 47.3 |
| COc1ccc(C(=O)/C=C/NCc2ccc(F)cc2)cc1OC | > 47.3 |
| Cc1cccc(N2C(=O)NC(=O)/C(=C\C=C\c3ccco3)C2=O)c1 | 39.2 (≈ 122 µM) |
| CC(C)(C)Nc1c(-c2cccs2)nc2ccccn12 | 33.4 (≈ 123 µM) |

| SMILES | solubility kinetic [µg/mL] |
| --- | --- |
| CCOc1ncccc1C(=O)Nc1nc(SC)ns1 | 7.8 (≈ 26.3 µM) |
| Cc1ccc(-n2ccnc2SCC(=O)O)cc1C | > 39.3 |
| CCOc1ccccc1NC(=O)NCc1cccnc1 | > 40.7 |
| O=c1c2ccccc2ncn1Cc1ccccc1 | 31.5 (≈ 133 µM) |
| CCCCN(C)C(=O)c1cc2cc3ccc(OC)cc3nc2o1 | 14.5 (≈ 46.4 µM) |
| O=C(O)Cc1c(-c2ccccc2)c2cc(Cl)ccc2[nH]c1=O | > 47.1 |
| COc1ccc(C(=O)COc2ccccc2C(N)=O)cc1 | 31.6 (≈ 111 µM) |
| CCOc1ccccc1C(=S)NC1CCCCC1 | 14.5 (≈ 55 µM) |
| S=C1CSc2ccccc2N1 | 25.1 (≈ 138 µM) |
| CCOC(=O)C(=CNc1ccccc1N1CCOCC1)C(=O)OCC | 45.6 (≈ 131 µM) |
| COc1ccc(S(=O)(=O)/C(C#N)=C/Nc2ccccc2F)cc1 | 3.3 (≈ 9.93 µM) |
| N#Cc1cccnc1N1CCN(C(=O)c2ccco2)CC1 | > 42.3 |
| O=C(CSc1nc2ccccc2s1)Nc1ccc(C(=O)O)cc1 | > 51.7 |
| Cc1cccnc1NC(=O)CCn1c(=O)oc2ccccc21 | > 44.6 |
| COc1ccc(C2=CSC3=NCCN23)cc1Cl | 38.4 (≈ 144 µM) |
| CCOC(=O)Cc1csc(-n2sc3ccccc3c2=O)n1 | 29.8 (≈ 93 µM) |
| COc1cc(CN2CCCN(C)CC2)c([N+](=O)[O-])cc1OC | 39 (≈ 126 µM) |
| CC(=O)N/C(N)=N/c1nc2cc(C)ccc2o1 | 3.3 (≈ 14.2 µM) |
| COc1cccc(Oc2cc(Cl)nc(N)n2)c1 | 15 (≈ 59.6 µM) |
| CN(C)c1ccc(/C=N/OC(=O)Nc2ccccc2)cc1 | 11 (≈ 38.8 µM) |

| SMILES | solubility kinetic [µg/mL] |
| --- | --- |
| O=C1CCCC(=O)N1c1ccc(F)cc1 | > 31.1 |
| O=C(c1cccc(F)c1)N1CCC(c2nc3ccccc3s2)CC1 | > 51.1 |
| Cc1cccc(Nc2nnc(SCC(=O)NCC3CCCO3)s2)c1 (stereo not given) | > 54.7 |
| CCCCOc1ccc(CSC(=N)N)cc1Cl.Cl | 40.6 |
| CCc1ccccc1N1CC(C(=O)N2Cc3ccccc3CC2C(N)=O)CC1=O (stereo not given) | > 58.7 |
| Cc1cc2c(cn1)C(CCC#N)(CCC#N)c1ccccc1-2 | > 43.1 |
| Cc1cc(-c2ccccc2)nc2c(Br)c(=O)[nH]n12 | > 45.6 |
| CCC(C)[C@H](NC(=O)Nc1ccc(S(N)(=O)=O)cc1)C(=O)OC (stereo not given in full) | > 51.5 |
| COc1ccc(NC(=O)O/N=C/c2ccccc2)cc1 | 5 (≈ 18.5 µM) |
| Cc1cc(NCC2CCCCC2)nc2ccccc12 | 21.4 (≈ 84.1 µM) |
| Cc1ccc2c(c1)C(=O)C(=O)N2CCCOc1ccccc1C | 4.9 (≈ 15.8 µM) |
| NC(=O)Cn1nc([N+](=O)[O-])nc1Oc1ccccc1F | > 42.2 |
| CC(C)(C)c1ccc(CN2C(=O)c3ccccc3S2(=O)=O)cc1 | 1.2 (≈ 3.64 µM) |
| O=C(CSc1ncccn1)Nc1cccc(S(=O)(=O)N2CCOCC2)c1 | > 59.2 |
| CN1CCN(C(=O)OC2c3nccnc3C(=O)N2c2ccc(Cl)cn2)CC1 (stereo not given) | > 58.3 |
| Cc1ccc(C(=O)NCCNC(=O)c2cccnc2)cc1 | 40 (≈ 141 µM) |
| Cn1c(Nc2cccc(Cl)c2)nc2ccccc21 | 5.5 (≈ 21.3 µM) |
| Cc1csc(SCC(=O)NCc2cccc(Cl)c2)n1 | > 46.9 |
| CCN(CC)c1cc(C)c2cc(NC(=O)c3cccs3)ccc2n1 | < 0.2 |
| Cc1ccccc1C(=O)c1c[nH]c(C(=O)N=CN(C)C)c1 | > 42.5 |
